Test results from publication PMC4010497, “Synthesis and Evaluation of Fluorine-Substituted Phenyl Acetate Derivatives as Ultra-Short Recovery Sedative/Hypnotic Agents” (PLoS ONE, 2014).

How the values were obtained:
rat [1] = assay type: in vivo
Description: All tests were performed during the light period. Groups of mice, rats and rabbits were injected intravenously (lateral tail vein) over 10 s with each dose of test compound, placed in separate boxes to reduce external stimuli and assessed for the loss of righting reflex. Dosing was performed using mg/kg scheme. A set of dose levels was chosen, and depending on whether the loss of righting reflex was observed, extra doses were introduced to provide data for the loss of righting reflex over a narrow dose range to allow potency calculations. From the percentage of mice, rats and rabbits in each group showing loss of righting reflex for ≥30 s, a probit analysis (SAS Institute) was performed to obtain an HD50 for each compound with 95% confidence limits.
Immediately following the injection, the mice, rats and rabbits were tested for loss of righting reflex. […] Once a loss was observed, the interval between the loss of righting reflex and the return to righting reflex was recorded. The anesthetized animals recovered righting reflexes spontaneously. To compare the duration of LORR of each compound at equipotent doses, groups of mice, rats and rabbits were injected with each compound at 2× HD50 over 10 s.
Time to walk was the time required after righting before mice and rabbits walked from the center to the periphery of a 30-cm diameter dise.
The rotarod test was conducted to evaluate the recovery to the motor coordination. Before the LORR test, mice were trained for 2 consecutive days. Trained mice could maintain their balance on rod for more than 2 mins. After the mice could walk from the center to the periphery of a 30-cm diameter dise, they were put on the rotarod. Mice were classified as behavioral recovery when, on being placed on the rod, they could maintain their balance for 20 s. The time to behavioral recovery was the time required after mice walked from the centre to the periphery of a 30-cm diameter disc before they could maintain their balance on rod for 20 s.

rat [2] = assay: Therapeutic index (LD50/HD50) in rat; assay type: in vivo
Description: (§1) The LD50 was determined in mice, rats, and rabbits and the TI was calculated as LD50/HD50.

rabbits [3] = assay: Therapeutic index (LD50/HD50) in rabbits; assay type: in vivo, rabbit
Description: as §1

rabbits [4] = assay: Hypnosis in response to IV infusion in rabbits; assay type: in vivo, rabbit
Description: Induction of hypnosis in rabbits was achieved using 2× HD50 dose of test compound, and immediately after induction, infusion via the tail vein was commenced at half the HD50 dosage per min. the infusion rate was maintained for 20 min or 1 h or 3 h later. The depth of hypnosis was monitored by the magnitude of a withdrawal reflex to intermittent paw pinch provided by a pair of forceps.

[5] = biological target: T1, human GABAA receptor α1, β2 and γ2 (CHO-K1 cells) (Homo sapiens, UniProt P14867+P18507+P47870); assay: cell-based; details: GABAA (α1β2γ2) CHO-K1 cell
T1 construct: expressed in transfected cells; host or cells: CHO-K1 cells, stably transfected
T1 sequence (P14867 28-456): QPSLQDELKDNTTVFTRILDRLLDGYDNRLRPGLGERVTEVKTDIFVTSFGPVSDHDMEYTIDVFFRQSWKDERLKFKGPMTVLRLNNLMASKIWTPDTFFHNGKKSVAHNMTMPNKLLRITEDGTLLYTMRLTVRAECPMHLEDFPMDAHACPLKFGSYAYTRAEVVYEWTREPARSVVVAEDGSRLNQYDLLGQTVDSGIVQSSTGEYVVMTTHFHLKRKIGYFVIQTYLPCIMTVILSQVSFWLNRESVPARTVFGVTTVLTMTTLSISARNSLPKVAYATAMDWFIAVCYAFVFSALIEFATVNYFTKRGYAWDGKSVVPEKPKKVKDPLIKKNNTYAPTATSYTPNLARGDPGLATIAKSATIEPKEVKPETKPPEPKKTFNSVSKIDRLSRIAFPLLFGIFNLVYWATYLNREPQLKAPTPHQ
T1 sequence (P47870 25-512 limits assumed): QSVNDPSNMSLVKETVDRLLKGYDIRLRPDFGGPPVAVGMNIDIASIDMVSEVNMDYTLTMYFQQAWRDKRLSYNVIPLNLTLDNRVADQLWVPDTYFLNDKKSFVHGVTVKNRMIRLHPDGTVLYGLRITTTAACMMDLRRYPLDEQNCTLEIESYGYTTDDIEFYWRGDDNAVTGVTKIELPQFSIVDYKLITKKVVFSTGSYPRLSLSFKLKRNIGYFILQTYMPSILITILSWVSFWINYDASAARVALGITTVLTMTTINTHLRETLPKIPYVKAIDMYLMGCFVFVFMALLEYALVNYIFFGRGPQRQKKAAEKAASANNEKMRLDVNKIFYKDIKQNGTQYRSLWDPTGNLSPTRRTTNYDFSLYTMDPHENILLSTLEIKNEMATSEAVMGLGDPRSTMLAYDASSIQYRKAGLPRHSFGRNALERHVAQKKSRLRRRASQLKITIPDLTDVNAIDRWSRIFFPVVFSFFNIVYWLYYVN
T1 sequence (P18507 40-475): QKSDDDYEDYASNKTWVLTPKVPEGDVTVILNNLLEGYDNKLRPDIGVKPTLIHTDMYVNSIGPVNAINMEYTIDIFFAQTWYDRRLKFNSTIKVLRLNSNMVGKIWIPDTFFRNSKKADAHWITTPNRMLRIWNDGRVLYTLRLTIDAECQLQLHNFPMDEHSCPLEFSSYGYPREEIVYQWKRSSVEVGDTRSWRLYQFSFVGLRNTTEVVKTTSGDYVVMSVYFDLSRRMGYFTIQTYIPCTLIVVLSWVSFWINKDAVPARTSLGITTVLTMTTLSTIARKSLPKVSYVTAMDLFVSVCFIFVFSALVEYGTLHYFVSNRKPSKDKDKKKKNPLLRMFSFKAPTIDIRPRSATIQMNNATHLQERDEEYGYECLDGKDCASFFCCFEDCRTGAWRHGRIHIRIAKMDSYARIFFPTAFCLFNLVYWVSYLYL
Description: Chinese hamster ovary (CHO)-K1 cells transfected stably with human GABAA receptor α1, β2 and γ2 subunit cDNAs were used. The cells were plated onto collagen-coated 35-mm cell culture dishes at low density for 1–7 days before recording. Test solutions were prepared in the extracellular solution on the day the patch-clamp assay was performed. The intracellular solution consisted of 22 mM KCl, 110 mM K-aspartate, 8 mM NaCl, 1 mM MgCl2, 1 mM CaCl2, 10 mM ethylene glycol tetraacetic acid, 5 mM Na2ATP, 10 mM hydroxyethyl piperazineethanesulfonic acid (HEPES) (adjusted to pH 7.2 using KOH), while the extracellular solution contained 145 mM NaCl, 4 mM KCl, 2 mM CaCl2, 2 mM MgCl2, 10 mM HEPES (adjusted to pH 7.4 using NaOH). The assay was performed at room temperature. Cells were maintained at −70 mV and the potentiation effect was assessed by co-application of the test compound with EC20 of muscimol after the cell was pre-incubated with the test compound for 45 s. GABA EC20 measured individually in each cell. The amplitude of the Cl− current in response to muscimol and/or test compound was determined. The response to the co-application of the test compound and muscimol was normalized to the control muscimol response as a percentage of the control. A potentiation effect was indicated by a value >100% of the control response. EC50 values were calculated using the four parameter logistic equation, where E was the amplitude of the muscimol-induced current in the presence of the anesthetic at concentration [A], EMAX was the amplitude of the response in the presence of a maximally effective concentration of the anesthetic, EC50 was the concentration of anesthetic producing a half-maximal enhancement of the muscimol-induced response and nH was the Hill coefficient. [drawing 1]

[6] = In vitro metabolic half-life in rabbit whole blood; assay type: in vitro ADME; details: male, New Zealand White rabbit (n = 3), 37°C, read-out: Mean t1/2 Value
Description: Human whole blood stability experiments were conducted in whole blood from four human donors (male, 18–25 years). Single experiments were conducted with pooled blood from Sprague-Dawley rats (male, 8 weeks, n = 3), New Zealand White rabbits (male, 8–10 weeks, n = 3), Beagle dogs (male, 2–3 years, n = 3) and Cynomolgus monkeys (male, 3–4 years, n = 3). All the blood samples were provided by Xuzhou Medical College. A 1.35-ml aliquot of blood was warmed at 37°C for 5 min and hypnotic (from a 40 mM stock in DMSO solution) was added to a final concentration of 200 µM. After the specified incubation time, a 150-µl sample was removed and the metabolic reaction was quenched using 150-µl acetonitrile. Zero time-point samples were prepared by adding 150-µl acetonitrile (using a 4 mM stock in DMSO) to 150-µl blood before addition of the hypnotic. The quenched samples were centrifuged, and the supernatant was separated and stored at −20°C until analyzed. Hypnotic concentrations in thawed samples were determined by high-performance liquid chromatography using a 3-µm phenyl 4.6×50-mm C-A-25, ACE column with the UV detector set at 240 nm. […] The lower limit of quantitation of this assay is 3 µM and the accuracy within 15% at 10 µM. The metabolic half-lives were quantified from the incubation time-dependent change in drug concentration.

[7] = In vitro metabolic half-life in dog whole blood; assay type: in vitro ADME, Beagle dog
Description: Human whole blood stability experiments were conducted in whole blood from four human donors (male, 18–25 years). Single experiments were conducted with pooled blood from Sprague-Dawley rats (male, 8 weeks, n = 3), New Zealand White rabbits (male, 8–10 weeks, n = 3), Beagle dogs (male, 2–3 years, n = 3) and Cynomolgus monkeys (male, 3–4 years, n = 3). All the blood samples were provided by Xuzhou Medical College. A 1.35-ml aliquot of blood was warmed at 37°C for 5 min and hypnotic (from a 40 mM stock in DMSO solution) was added to a final concentration of 200 µM. After the specified incubation time, a 150-µl sample was removed and the metabolic reaction was quenched using 150-µl acetonitrile. Zero time-point samples were prepared by adding 150-µl acetonitrile (using a 4 mM stock in DMSO) to 150-µl blood before addition of the hypnotic. The quenched samples were centrifuged, and the supernatant was separated and stored at −20°C until analyzed. Hypnotic concentrations in thawed samples were determined by high-performance liquid chromatography using a 3-µm phenyl 4.6×50-mm C-A-25, ACE column with the UV detector set at 240 nm. A linear gradient 20–45% acetonitrile in water with 0.05% trifluoroacetic acid was run for more than 20 min at a flow rate of 1 ml/min. The lower limit of quantitation of this assay is 3 µM and the accuracy within 15% at 10 µM. The metabolic half-lives were quantified from the incubation time-dependent change in drug concentration.

[8] = Octanol:water partition coefficient; assay type: physicochemical; details: water buffered with 10 mm Tris (pH 7.4)
Description: One mg of each hypnotic was added to 10 ml of water buffered with 10 mm Tris (pH 7.4) and 1 ml of octanol. The mixture was stirred overnight and then centrifuged to fully separate the organic and aqueous phases. The relative hypnotic concentration in each phase (i.e., the partition coefficient) was determined by high-performance liquid chromatography as described for blood.

CCOc1cc(CC(=O)OCC(F)(F)F)ccc1OCC(=O)N(CC)CC [Compound 5j, 2,2,2-trifluoroethyl 2-(4-(2-(diethylamino)-2-oxoethoxy)-3-ethoxyphenyl)acetate]
Duration of LORR (rat [1]; 2× HD50 dose, mean ± SD): 66.5 ± 8.7 s | Time to walk (rat [1]; 2× HD50 dose, mean ± SD): 14.2 ± 5.4 s | time to behavioral recovery (rat [1]; 2× HD50 dose, mean ± SD): 22.8 ± 3.2 s | HD50 (rat [1]; IV, 95% confidence limits): 12.9 (10.6∼13.7) mg/kg | TI (rat [2]): 13.3 | TI (rabbits [3]): 21.2 | duration of LORR after cessation of infusion (rabbits [4]; 1-h IV infusion): 125.8 ± 57.6 s | duration of LORR after cessation of infusion (rabbits [4]; 3-h IV infusion): 132.9 ± 56.2 s | time to walk after infusion (rabbits [4]; 20-min IV infusion): 15.5 ± 7.55 s | duration of LORR after cessation of infusion (rabbits [4]; 20-min IV infusion at half the HD50 per min after 2× HD50 induction): 117.5 ± 47.2 s | maximum potentiation relative to that of propanidid [5]: ~150% | maximum potentiation relative to that produced by propofol [5]: approximately 50% | EC50 ([5]; patch clamp, read-out: EC50, potentiation of EC20 muscimol evoked chloride currents): 12 µM | half-life at 200 µM [6]: 11.6 ± 1.6 min | stability in blood (in words) ([7]; dog blood): stable | half-life at 200 µM ([7]; male, whole blood, Beagle dog (n = 3), 37°C, 200 µM, read-out: Mean t1/2 Value): > 60 min | Octanol:Water Partition (Coefficient ± SD) [8]: 648±36
